Where two headings read alike, the source gives them in different places. Values belong to the compound of their own block, whether it stands above or below them.
Tests used:
[1] = system: M14 (amelanotic melanoma) cells; assay: antiproliferation assay (72 h, CELLTITER 96), M14; format: cell-based, human
Procedure, shortened: (§1)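 Human M14 melanoma and NCI-H460 lung carcinoma cells in RPMI-1640/10% FBS, seeded at 5×10^2–5×10^4 cells/well and adhered overnight, then exposed to seven compound concentrations for 72 h at 37 °C. Viable cells read by CellTiter 96 AQueous (MTS); IC50 = concentration giving 50% of maximal growth inhibition.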

[2] = system: NCI-H460 (large cell lung carcinoma) cells; assay: antiproliferation assay (72 h, CELLTITER 96), NCI-H460; format: cell-based, human
Procedure, shortened: as §1

K-562 cells = assay: antiproliferation assay, K-562; format: cell-based; conditions: Homo sapiens, K562
Procedure: (§2) For the antiproliferation assay, NCI-H460 (large cell lung carcinoma) or M14 (amelanotic melanoma) cells were grown in RPMI-1640 with 10% FBS supplemented with L-glutamine and HEPES. Cells were seeded into 96-well plates at 5×10^2 to 5×10^4 cells/well and allowed to adhere overnight; the medium was then removed. A stock solution of test compound in DMSO was diluted in medium to generate a series of working solutions. Aliquots (100 μl) of the working solutions were then added to the appropriate test wells to expose cells to the final concentrations of compound in a total volume of 100 μl. Seven different concentrations were tested, with 2-5 wells per concentration. Camptothecin was used as a positive control; wells containing vehicle without compound were used as negative controls. Plates were kept for 72 h in a 37° C., 5% CO2 incubator. After incubation, viable cells were detected with the CELLTITER 96 AQueous Non-Radioactive Cell Proliferation Assay (Promega), and IC50 values were determined using GraphPad Prism 5 software.
(§3) Antiproliferation of several of the active compounds was tested against additional cell lines.

LOX-IMVI cells = assay: antiproliferation assay, LOX-IMVI; format: cell-based; conditions: Homo sapiens
Procedure: as §2, §3

MES-SA/Dx5 cells = assay: antiproliferation assay, MES-SA/Dx5; format: cell-based; conditions: Homo sapiens
Procedure: as §2, §3
(§4) Compound 4 was tested for antiproliferation activity against several paclitaxel-resistant human cancer cell lines.

MOLT-4 cells = assay: antiproliferation assay, MOLT-4; format: cell-based; conditions: Homo sapiens
Procedure: as §2, §3

NCI/ADR-RES cells = assay: antiproliferation assay, NCI/ADR-RES; format: cell-based; conditions: Homo sapiens
Procedure: as §2, §3, §4

NCI-H187 cells = assay: antiproliferation assay, NCI-H187; format: cell-based; conditions: Homo sapiens
Procedure: as §2, §3

OVCAR-3 cells = assay: antiproliferation assay, OVCAR-3; format: cell-based; conditions: Homo sapiens
Procedure: as §2, §3

SK-Mel-2 cells = assay: antiproliferation assay, SK-Mel-2; format: cell-based; conditions: Homo sapiens
Procedure: as §2, §3

OVCAR-4 cells = assay: antiproliferation assay, OVCAR-4; format: cell-based; conditions: Homo sapiens
Procedure: as §2, §3

UO-31 cells = assay: antiproliferation assay, paclitaxel-resistant UO-31; format: cell-based; conditions: Homo sapiens
Procedure: as §2, §4

HCT-15 cells = assay: antiproliferation assay, paclitaxel-resistant HCT-15; format: cell-based; conditions: Homo sapiens
Procedure: as §2, §4

EKVX cells = assay: antiproliferation assay, paclitaxel-resistant EKVX; format: cell-based; conditions: Homo sapiens
Procedure: as §2, §4

DLD-1 cells = assay: antiproliferation assay, paclitaxel-resistant DLD-1; format: cell-based; conditions: Homo sapiens
Procedure: as §2, §4

ACHN cells = assay: antiproliferation assay, paclitaxel-resistant ACHN; format: cell-based; conditions: Homo sapiens
Procedure: as §2, §4

TK-10 cells = assay: antiproliferation assay, paclitaxel-resistant TK-10; format: cell-based; conditions: Homo sapiens
Procedure: as §2, §4

[3] = Homo sapiens, NCI-H460, Table 3, read-out: NCI-H460 IC50
[4] = Homo sapiens, NCI-H460, Table 7, read-out: NCI-H460 IC50

Compound: C=CC[C@H]1C[C@]2([C@@H](C)Cc3ccc(OC)cc3F)OCOC2=CC1=O (relative stereo) [Compound 2, 6-allyl-7a-(1-(2-fluoro-4-methoxyphenyl)propan-2-yl)-7,7a-dihydrobenzo[d][1,3]dioxol-5(6H)-one]
IC50 ([1]; Homo sapiens, Table 3): 11 nM
IC50 [2, 3]: 88 nM
IC50 ([2]; Homo sapiens, NCI-H460, as quoted in the pharmacokinetics text, read-out: IC50 against NCI-H460 human lung cancer cells): 90 nM
IC50 (K-562 cells): 76 nM
IC50 (LOX-IMVI cells): 56 nM
IC50 (MES-SA/Dx5 cells; MES-SA/Dx5, MES-SA/Dx5): 52 nM
IC50 (MOLT-4 cells): 110 nM
IC50 (NCI/ADR-RES cells): 45 nM
IC50 (NCI-H187 cells): 91 nM
IC50 (OVCAR-3 cells): 60 nM

Compound: C=CC[C@H]1C[C@]2([C@H](C)Cc3cc(F)c(OC)cc3F)OCOC2=CC1=O (relative stereo) [Compound 6, 6-allyl-7a-(1-(2,5-difluoro-4-methoxyphenyl)propan-2-yl)-7,7a-dihydrobenzo[d][1,3]dioxol-5(6H)-one]
IC50 ([1]; Homo sapiens, Table 3): 10 nM
IC50 [2, 3]: 35 nM
IC50 (K-562 cells): 28 nM
IC50 (LOX-IMVI cells): 18 nM
IC50 (MES-SA/Dx5 cells; MES-SA/Dx5, MES-SA/Dx5): 14 nM
IC50 (MOLT-4 cells): 81 nM
IC50 (NCI/ADR-RES cells): 13 nM
IC50 (NCI-H187 cells): 22 nM
IC50 (OVCAR-3 cells): 38 nM

Compound: C=CC[C@H]1C[C@]2([C@@H](C)Cc3ccc(OC)c(C(N)=O)c3)OCOC2=CC1=O [Compound 29, 5-((S)-2-((3aR,5S)-5-allyl-6-oxo-3a,4,5,6-tetrahydrobenzo[d][1,3]dioxol-3a-yl)propyl)-2-methoxybenzamide]
IC50 ([1]; Homo sapiens, Table 4): 12 nM
IC50 ([2]; Homo sapiens, NCI-H460, Table 4, read-out: NCI-H460 IC50): 66 nM
IC50 (K-562 cells): 25 nM
IC50 (LOX-IMVI cells): 26 nM
IC50 (MES-SA/Dx5 cells; MES-SA/Dx5, MES-SA/Dx5): 31 nM
IC50 (MOLT-4 cells): 83 nM
IC50 (NCI/ADR-RES cells): 44 nM
IC50 (OVCAR-3 cells): 57 nM
IC50 (SK-Mel-2 cells): 9.2 nM

Compound: CCC[C@H]1C[C@]2([C@H](C)Cc3cc(F)c(OC)cc3F)OCOC2=CC1=O [Compound 61, (6S,7aR)-7a-((R)-1-(2,5-difluoro-4-methoxyphenyl)propan-2-yl)-6-propyl-7,7a-dihydrobenzo[d][1,3]dioxol-5(6H)-one]
IC50 ([1]; Homo sapiens, Table 7): 17 nM
IC50 [2, 4]: 140 nM
IC50 (LOX-IMVI cells): 53 nM
IC50 (MES-SA/Dx5 cells; MES-SA/Dx5, MES-SA/Dx5): 84 nM
IC50 (MOLT-4 cells): 120 nM
IC50 (NCI/ADR-RES cells): 63 nM
IC50 (OVCAR-4 cells): 37 nM

Compound: C=C[C@@H](C)[C@H]1C[C@]2([C@@H](C)Cc3ccc(OC)cc3F)OCOC2=CC1=O [Compound 112, (6R,7aR)-6-((R)-but-3-en-2-yl)-7a-((S)-1-(2-fluoro-4-methoxyphenyl)propan-2-yl)-7,7a-dihydrobenzo[d][1,3]dioxol-5(6H)-one]
IC50 ([1]; Homo sapiens, Table 7): 44 nM
IC50 [2, 4]: 68 nM

Compound: COc1cc(F)c(C[C@H](C)[C@]23C[C@H](Cc4ccco4)C(=O)C=C2OCO3)cc1O [Compound 113, (6S,7aR)-7a-((S)-1-(2-fluoro-5-hydroxy-4-methoxyphenyl)propan-2-yl)-6-(furan-2-ylmethyl)-7,7a-dihydrobenzo[d][1,3]dioxol-5(6H)-one]
IC50 ([1]; Homo sapiens, Table 7): 1600 nM
IC50 [2, 4]: 2500 nM

Compound: COc1cc(F)c(C[C@H](C)[C@]23C[C@H](Cc4ccncc4)C(=O)C=C2OCO3)cc1O [Compound 114, (6S,7aR)-7a-((S)-1-(2-fluoro-5-hydroxy-4-methoxyphenyl)propan-2-yl)-6-(pyridin-4-ylmethyl)-7,7a-dihydrobenzo[d][1,3]dioxol-5(6H)-one]
IC50 ([1]; Homo sapiens, Table 7): 3500 nM
IC50 [2, 4]: 2000 nM

Second part, led by results:

IC50 ([1]; Homo sapiens, Table 7): 11300 nM
IC50 [2, 4]: > 20000 nM
Compound: CCS[C@H]1C[C@]2([C@@H](C)Cc3ccc(OC)cc3F)OCOC2=CC1=O [Compound 115, (6S,7aR)-6-(ethylthio)-7a-((S)-1-(2-fluoro-4-methoxyphenyl)propan-2-yl)-7,7a-dihydrobenzo[d][1,3]dioxol-5(6H)-one]

IC50 ([1]; Homo sapiens, Table 5): 120 nM
IC50 ([2]; Homo sapiens, NCI-H460, Table 5, read-out: NCI-H460 IC50): 190 nM
Compound: C=CC[C@H]1C[C@]2([C@@H](C)Cc3cc(F)c(SC)cc3F)OCOC2=CC1=O [Compound 116, (6S,7aR)-6-allyl-7a-((S)-1-(2,5-difluoro-4-(methylthio)phenyl)propan-2-yl)-7,7a-dihydrobenzo[d][1,3]dioxol-5(6H)-one]

IC50 (HCT-15 cells): 165 nM
IC50 (DLD-1 cells): 90 nM
IC50 (ACHN cells): 90 nM
Compound: CC(=O)O[C@H]1C(=O)[C@@]2(C)[C@H]([C@H](OC(=O)c3ccccc3)[C@]3(O)C[C@H](OC(=O)[C@H](O)[C@@H](NC(=O)c4ccccc4)c4ccccc4)C(C)=C1C3(C)C)[C@]1(OC(C)=O)CO[C@@H]1C[C@@H]2O [paclitaxel, reference compound]
IC50 (MES-SA/Dx5 cells; MES-SA/Dx5, paclitaxel-resistant MES-SA/Dx5): 5000 nM
IC50 (NCI/ADR-RES cells; paclitaxel-resistant NCI/ADR-RES): 9600 nM
IC50 (UO-31 cells): 240 nM
IC50 (EKVX cells): 150 nM
IC50 (TK-10 cells): 80 nM

IC50 ([1]; Table 4): > 20000 nM
IC50 ([2]; Table 4, read-out: NCI-H460 IC50): > 20000 nM
Compound: (6S,7aR)-6-allyl-7a-((S)-1-(2-fluoro-4-methoxy-5-morpholinophenyl)propan-2-yl)-7,7a-dihydrobenzo[d][1,3]dioxol-5(6H)-one [Compound 98]

— US9562031B1, “Phenethyldihydrobenzodioxolones and methods of use” (Sequoia Sciences, Inc., priority 2015, dated 2017)
